Results published in patent US12569434B2, “Formulations of Nebivolol” (EXTROVIS AG, priority 2020, dated 2026).

Tests used:
[1] = assay type: physicochemical; settings: open air exposure, 50° C. for 2 Weeks and 40° C./7.5% RH for 1 month
Procedure: Drug-Excipient compatibility study was carried with excipients such as mannitol, maltitol, dextrates, povidone, methyl paraben, propyl paraben, citric acid, sodium citrate, sodium saccharin. The study was carried out in clear glass vials with open air exposure at stress conditions 50° C. for 2 Weeks and 40° C./[…] (relative humidity) for 1 month.

[2] = assay type: physicochemical; settings: solution in propylene glycol, pH 3 to 7, 50° C. for 1M and 40° C./75% RH for 6M
Procedure: To evaluate the stability of Nebivolol in suitable liquid vehicle or solubilizer at different pH conditions, pH stability study was performed using 0.1N HCL/0.1N NaOH for pH adjustment. Propylene glycol was used as solubilizer to dissolve Nebivolol to prepare the stock solution. The stock solution was added to water and adjusted the pH with 0.1N HCL/0.1N NaOH at different pH ranging from 3 to 7.

## Cl.OC(CNCC(O)C1CCc2cc(F)ccc2O1)C1CCc2cc(F)ccc2O1 (racemic) [Nebivolol HCl, (1RS,1′RS)-1,1′-[(2RS,2′SR)-bis(6-fluoro-3,4-dihydro-2H-1-benzopyran-2-yl)]-2,2′-iminodiethanol hydrochloride]
[1]
  Stability of Nebivolol with excipients: stable
  desfluoro impurity: within the specification limits
[2]
  Stability of Nebivolol: stable
  desfluoro Nebivolol impurity: within the specification limits
